Test results published in PubChem BioAssay AID2060898 (Molecular Pharmacology Branch, DTP, NCI, 2025).
pIC50: −log10 of the molar value.

Tested on: 616215-338-R-J1-PDC complex spheroid viability
Test: Anticancer human tumor 616215-338-R-J1-PDC patient-derived colon adenocarcinoma cell line growth inhibition [RAS]
Conditions: for pIC50: curve of first compound; for viability, T/C: stronger effect = lower value
Method in brief: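 Multi-cell-type spheroids: tumor cells plus HUVEC endothelial cells and mesenchymal stem cells. RAS-pathway inhibitors were combined with targeted agents, each dosed in half-log steps down from clinical Cmax, or from 10 microM when Cmax was unknown.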

[1] = second compound 0.000949 µM, first compound 0.0316 µM
[2] = second compound 0.000949 µM, first compound 0.1 µM
[3] = second compound 0.000949 µM, first compound 0.316 µM
[4] = second compound 0.000949 µM, first compound 1 µM
[5] = second compound 0.003 µM, first compound 0.0316 µM
[6] = second compound 0.003 µM, first compound 0.1 µM
[7] = second compound 0.003 µM, first compound 0.316 µM
[8] = second compound 0.003 µM, first compound 1 µM
[9] = second compound 0.00949 µM, first compound 0.0316 µM
[10] = second compound 0.00949 µM, first compound 0.1 µM
[11] = second compound 0.00949 µM, first compound 0.316 µM
[12] = second compound 0.00949 µM, first compound 1 µM
[13] = second compound 0.03 µM, first compound 0.0316 µM
[14] = second compound 0.03 µM, first compound 0.1 µM
[15] = second compound 0.03 µM, first compound 0.316 µM
[16] = second compound 0.03 µM, first compound 1 µM
[17] = second compound 0.0949 µM, first compound 0.0316 µM
[18] = second compound 0.0949 µM, first compound 0.1 µM
[19] = second compound 0.0949 µM, first compound 0.316 µM
[20] = second compound 0.0949 µM, first compound 1 µM
[21] = second compound 0.3 µM, first compound 0.0316 µM
[22] = second compound 0.3 µM, first compound 0.1 µM
[23] = second compound 0.3 µM, first compound 0.316 µM
[24] = second compound 0.3 µM, first compound 1 µM
[25] = second compound 0.000949 µM, first compound 3.16 µM
[26] = second compound 0.000949 µM, first compound 10 µM
[27] = second compound 0.003 µM, first compound 3.16 µM
[28] = second compound 0.003 µM, first compound 10 µM
[29] = second compound 0.00949 µM, first compound 3.16 µM
[30] = second compound 0.00949 µM, first compound 10 µM
[31] = second compound 0.03 µM, first compound 3.16 µM
[32] = second compound 0.03 µM, first compound 10 µM
[33] = second compound 0.0949 µM, first compound 3.16 µM
[34] = second compound 0.0949 µM, first compound 10 µM
[35] = second compound 0.3 µM, first compound 3.16 µM
[36] = second compound 0.3 µM, first compound 10 µM
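Also: spheroids exposed to agents for seven days before viability readout.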
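For viability, T/C in this document: 100% = DMSO vehicle control viability.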

CCN1CCN(Cc2ccc(Nc3ncc(F)c(-c4cc(F)c5nc(C)n(C(C)C)c5c4)n3)nc2)CC1 + CCn1c(-c2cccnc2C(C)OC)c2c3cc(ccc31)N1CCOC(CC(NC(=O)C(C(C)C)N(C)C(=O)C3(F)CCN(C(=O)C#CC(C)(C)N(C)C)CC3)C(=O)N3CCCC(N3)C(=O)OCC(C)(C)C2)C1
pIC50 (second compound 0.000949 µM): < 6.00
pIC50 (second compound 0.003 µM): < 6.00
pIC50 (second compound 0.00949 µM): < 6.00
pIC50 (second compound 0.03 µM): < 6.00
pIC50 (second compound 0.0949 µM): < 6.00
pIC50 (second compound 0.3 µM): 6.03
viability, T/C (second compound 0.000949 µM, first compound 0.00316 µM): 104%
viability, T/C (second compound 0.000949 µM, first compound 0.01 µM): 103%
viability, T/C [1]: 104%
viability, T/C [2]: 122%
viability, T/C [3]: 144%
viability, T/C [4]: 66.5%
viability, T/C (second compound 0.003 µM, first compound 0.00316 µM): 102%
viability, T/C (second compound 0.003 µM, first compound 0.01 µM): 103%
viability, T/C [5]: 105%
viability, T/C [6]: 121%
viability, T/C [7]: 141%
viability, T/C [8]: 59.2%
viability, T/C (second compound 0.00949 µM, first compound 0.00316 µM): 102%
viability, T/C (second compound 0.00949 µM, first compound 0.01 µM): 104%
viability, T/C [9]: 108%
viability, T/C [10]: 128%
viability, T/C [11]: 134%
viability, T/C [12]: 56.8%
viability, T/C (second compound 0.03 µM, first compound 0.00316 µM): 110%
viability, T/C (second compound 0.03 µM, first compound 0.01 µM): 105%
viability, T/C [13]: 118%
viability, T/C [14]: 122%
viability, T/C [15]: 143%
viability, T/C [16]: 67.1%
viability, T/C (second compound 0.0949 µM, first compound 0.00316 µM): 109%
viability, T/C (second compound 0.0949 µM, first compound 0.01 µM): 113%
viability, T/C [17]: 116%
viability, T/C [18]: 121%
viability, T/C [19]: 129%
viability, T/C [20]: 50%
viability, T/C (second compound 0.3 µM, first compound 0.00316 µM): 117%
viability, T/C (second compound 0.3 µM, first compound 0.01 µM): 104%
viability, T/C [21]: 113%
viability, T/C [22]: 116%
viability, T/C [23]: 108%
viability, T/C [24]: 46%

C[C@@H](NC(=O)c1ncnc(N)c1Cl)c1ncc(C(=O)Nc2cc(C(F)(F)F)c(Cl)cn2)s1 + CCn1c(-c2cccnc2C(C)OC)c2c3cc(ccc31)N1CCOC(CC(NC(=O)C(C(C)C)N(C)C(=O)C3(F)CCN(C(=O)C#CC(C)(C)N(C)C)CC3)C(=O)N3CCCC(N3)C(=O)OCC(C)(C)C2)C1
pIC50 (second compound 0.000949 µM): < 5.00
pIC50 (second compound 0.003 µM): < 5.00
pIC50 (second compound 0.00949 µM): < 5.00
pIC50 (second compound 0.03 µM): < 5.00
pIC50 (second compound 0.0949 µM): < 5.00
pIC50 (second compound 0.3 µM): 5.21
viability, T/C [1]: 108%
viability, T/C [2]: 103%
viability, T/C [3]: 100%
viability, T/C [4]: 117%
viability, T/C [25]: 113%
viability, T/C [26]: 61.5%
viability, T/C [5]: 94.2%
viability, T/C [6]: 105%
viability, T/C [7]: 104%
viability, T/C [8]: 120%
viability, T/C [27]: 107%
viability, T/C [28]: 68%
viability, T/C [9]: 103%
viability, T/C [10]: 100%
viability, T/C [11]: 101%
viability, T/C [12]: 112%
viability, T/C [29]: 121%
viability, T/C [30]: 72.7%
viability, T/C [13]: 101%
viability, T/C [14]: 98.6%
viability, T/C [15]: 116%
viability, T/C [16]: 111%
viability, T/C [31]: 112%
viability, T/C [32]: 68.6%
viability, T/C [17]: 109%
viability, T/C [18]: 115%
viability, T/C [19]: 116%
viability, T/C [20]: 86.1%
viability, T/C [33]: 90%
viability, T/C [34]: 54.6%
viability, T/C [21]: 113%
viability, T/C [22]: 111%
viability, T/C [23]: 100%
viability, T/C [24]: 79.8%
viability, T/C [35]: 66.5%
viability, T/C [36]: 39.7%

Cc1nc(N2CCC3(CC2)COC(C)C3N)c(CO)nc1Sc1ccnc(N)c1Cl (stereo unspecified) + CCn1c(-c2cccnc2C(C)OC)c2c3cc(ccc31)N1CCOC(CC(NC(=O)C(C(C)C)N(C)C(=O)C3(F)CCN(C(=O)C#CC(C)(C)N(C)C)CC3)C(=O)N3CCCC(N3)C(=O)OCC(C)(C)C2)C1
pIC50 (second compound 0.000949 µM): < 5.00
pIC50 (second compound 0.003 µM): < 5.00
pIC50 (second compound 0.00949 µM): < 5.00
pIC50 (second compound 0.03 µM): < 5.00
pIC50 (second compound 0.0949 µM): < 5.00
pIC50 (second compound 0.3 µM): 5.12
viability, T/C [1]: 112%
viability, T/C [2]: 106%
viability, T/C [3]: 117%
viability, T/C [4]: 96.8%
viability, T/C [25]: 80.1%
viability, T/C [26]: 72.3%
viability, T/C [5]: 110%
viability, T/C [6]: 112%
viability, T/C [7]: 103%
viability, T/C [8]: 92.6%
viability, T/C [27]: 79.6%
viability, T/C [28]: 69.6%
viability, T/C [9]: 113%
viability, T/C [10]: 108%
viability, T/C [11]: 111%
viability, T/C [12]: 93.3%
viability, T/C [29]: 92.6%
viability, T/C [30]: 62.8%
viability, T/C [13]: 116%
viability, T/C [14]: 114%
viability, T/C [15]: 101%
viability, T/C [16]: 97.8%
viability, T/C [31]: 86.1%
viability, T/C [32]: 59.1%
viability, T/C [17]: 117%
viability, T/C [18]: 120%
viability, T/C [19]: 96.8%
viability, T/C [20]: 74.2%
viability, T/C [33]: 62.5%
viability, T/C [34]: 53.8%
viability, T/C [21]: 102%
viability, T/C [22]: 84%
viability, T/C [23]: 77%
viability, T/C [24]: 68.3%
viability, T/C [35]: 52.6%
viability, T/C [36]: 49.2%
